This assay has as its system L1210 leukemia ip in BDF1 mice, survival T/C. Put plainly: NCI In Vivo Anticancer Drug Screen. Data for tumor model L1210 Leukemia (intraperitoneal) in B6D2F1 (BDF1) mice. The note with it: higher = longer survival. The essentials:
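Each compound was tested against a transplantable tumor grown in mice. The endpoint was survival, with treated animals benchmarked against vehicle controls as a simple ratio.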

Several values for one entry are separate records, joined by “and”; a condition that tells them apart may be missing. Equal entries are not always repeated. Inconclusive results and toxic doses are left out.

As to `O=C(O)CCCc1ccc(N(CCCl)CCCl)cc1`, the T/C is 101 % of control and 104 % of control (endpoint: mean survival time, dose: 0.5 mg/kg/injection, schedule: Q01DX009 (ip), vehicle: saline with Tween-80); 96 % of control and 106 % of control (endpoint: mean survival time, dose: 1.0 mg/kg/injection, schedule: Q01DX009 (ip), vehicle: saline with Tween-80); 95 % of control and 105 % of control (endpoint: mean survival time, dose: 1.0 mg/kg/injection, schedule: Q04DX002 (ip), vehicle: saline with Tween-80); 107 % of control (endpoint: mean survival time, dose: 1.0 mg/kg/injection, schedule: Q12HX018 (ip), vehicle: saline with Tween-80); 103 % of control (endpoint: mean survival time, dose: 1.81 mg/kg/injection, schedule: Q01DX Z (ip), vehicle: carboxymethylcellulose (CMC)); 103 % of control and 107 % of control (endpoint: mean survival time, dose: 2.0 mg/kg/injection, schedule: Q01DX009 (ip), vehicle: saline with Tween-80). In addition, the T/C (endpoint: mean survival time, dose: 2.0 mg/kg/injection, schedule: Q04DX002 (ip), vehicle: saline with Tween-80) is 100 % of control and 105 % of control; the T/C (endpoint: mean survival time, dose: 2.0 mg/kg/injection, schedule: Q08HX027 (ip), vehicle: acetone) is 120 % of control; the T/C (endpoint: mean survival time, dose: 2.0 mg/kg/injection, schedule: Q12HX018 (ip), vehicle: acetone) was 110 % of control and 111 % of control and 121 % of control; the T/C (endpoint: mean survival time, dose: 2.0 mg/kg/injection, schedule: Q12HX018 (ip), vehicle: saline with Tween-80) is 115 % of control; the T/C (endpoint: mean survival time, dose: 2.5 mg/kg/injection, schedule: Q01DX001 (ip), vehicle: carboxymethylcellulose (CMC)) is 112 % of control; the T/C (endpoint: mean survival time, dose: 3.62 mg/kg/injection, schedule: Q01DX Z (ip), vehicle: carboxymethylcellulose (CMC)) was 106 % of control. For the same compound, the T/C (endpoint: mean survival time, dose: 4.0 mg/kg/injection, schedule: Q01DX009 (ip), vehicle: acetone) is 112 % of control and 123 % of control; the T/C (endpoint: mean survival time, dose: 4.0 mg/kg/injection, schedule: Q01DX009 (ip), vehicle: saline with Tween-80) is 100 % of control and 115 % of control; the T/C (endpoint: mean survival time, dose: 4.0 mg/kg/injection, schedule: Q04DX002 (ip), vehicle: saline with Tween-80) was 96 % of control and 102 % of control; the T/C (endpoint: mean survival time, dose: 4.0 mg/kg/injection, schedule: Q12HX018 (ip), vehicle: Klucel (hydroxypropylcellulose) (HPC)) was 115 % of control; the T/C (endpoint: mean survival time, dose: 4.0 mg/kg/injection, schedule: Q12HX018 (ip), vehicle: acetone) was 122 % of control; the T/C (endpoint: mean survival time, dose: 4.0 mg/kg/injection, schedule: Q12HX018 (ip), vehicle: other) is 112 % of control and 121 % of control. For the same compound, the T/C runs as follows: (endpoint: mean survival time, dose: 4.0 mg/kg/injection, schedule: Q12HX018 (ip), vehicle: saline with Tween-80) 124 % of control; (endpoint: mean survival time, dose: 5.0 mg/kg/injection, schedule: Q01DX001 (ip), vehicle: carboxymethylcellulose (CMC)) 103 % of control; (endpoint: mean survival time, dose: 5.0 mg/kg/injection, schedule: Q08HX027 (ip), vehicle: acetone) 90 % of control; (endpoint: mean survival time, dose: 5.8 mg/kg/injection, schedule: Q01DX Z (ip), vehicle: carboxymethylcellulose (CMC)) 101 % of control and 103 % of control; (endpoint: mean survival time, dose: 6.0 mg/kg/injection, schedule: Q12HX018 (ip), vehicle: Klucel (hydroxypropylcellulose) (HPC)) 116 % of control; (endpoint: mean survival time, dose: 6.0 mg/kg/injection, schedule: Q12HX018 (ip), vehicle: acetone) 162 % of control. For the same compound, the T/C runs as follows: (endpoint: mean survival time, dose: 6.0 mg/kg/injection, schedule: Q12HX018 (ip), vehicle: other) 120 % of control; (endpoint: mean survival time, dose: 6.0 mg/kg/injection, schedule: Q12HX018 (ip), vehicle: saline with Tween-80) 120 % of control; (endpoint: mean survival time, dose: 6.25 mg/kg/injection, schedule: Q01DX Z (ip), vehicle: carboxymethylcellulose (CMC)) 113 % of control; (endpoint: mean survival time, dose: 7.25 mg/kg/injection, schedule: Q01DX Z (ip), vehicle: carboxymethylcellulose (CMC)) 98 % of control and 103 % of control and 120 % of control; (endpoint: mean survival time, dose: 8.0 mg/kg/injection, schedule: Q01DX009 (ip), vehicle: saline with Tween-80) 115 % of control and 116 % of control; (endpoint: mean survival time, dose: 8.0 mg/kg/injection, schedule: Q04DX002 (ip), vehicle: saline with Tween-80) 96 % of control and 98 % of control. The T/C is, setting by setting: (endpoint: mean survival time, dose: 8.0 mg/kg/injection, schedule: Q12HX018 (ip), vehicle: Klucel (hydroxypropylcellulose) (HPC)) 114 % of control and 118 % of control; (endpoint: mean survival time, dose: 8.0 mg/kg/injection, schedule: Q12HX018 (ip), vehicle: acetone) 100 % of control; (endpoint: mean survival time, dose: 8.0 mg/kg/injection, schedule: Q12HX018 (ip), vehicle: saline with Tween-80) 118 % of control; (endpoint: mean survival time, dose: 9.66 mg/kg/injection, schedule: Q01DX Z (ip), vehicle: carboxymethylcellulose (CMC)) 100 % of control and 114 % of control; (endpoint: mean survival time, dose: 10.0 mg/kg/injection, schedule: Q01DX001 (ip), vehicle: carboxymethylcellulose (CMC)) 109 % of control; (endpoint: mean survival time, dose: 10.0 mg/kg/injection, schedule: Q12HX018 (ip), vehicle: acetone) 88 % of control. The T/C runs as follows: (endpoint: mean survival time, dose: 12.0 mg/kg/injection, schedule: Q01DX009 (ip), vehicle: acetone) 122 % of control; (endpoint: mean survival time, dose: 12.0 mg/kg/injection, schedule: Q12HX018 (ip), vehicle: Klucel (hydroxypropylcellulose) (HPC)) 103 % of control and 121 % of control; (endpoint: mean survival time, dose: 12.0 mg/kg/injection, schedule: Q12HX018 (ip), vehicle: saline with Tween-80) 109 % of control; (endpoint: mean survival time, dose: 12.5 mg/kg/injection, schedule: Q01DX Z (ip), vehicle: carboxymethylcellulose (CMC)) 110 % of control; (endpoint: mean survival time, dose: 14.5 mg/kg/injection, schedule: Q01DX Z (ip), vehicle: carboxymethylcellulose (CMC)) 114 % of control and 117 % of control; (endpoint: mean survival time, dose: 16.0 mg/kg/injection, schedule: Q01DX009 (ip), vehicle: acetone) 101 % of control and 115 % of control. Moreover, the T/C is 121 % of control (endpoint: mean survival time, dose: 16.0 mg/kg/injection, schedule: Q01DX009 (ip), vehicle: saline with Tween-80); 100 % of control and 108 % of control (endpoint: mean survival time, dose: 16.0 mg/kg/injection, schedule: Q04DX002 (ip), vehicle: saline with Tween-80); 92 % of control (endpoint: mean survival time, dose: 16.0 mg/kg/injection, schedule: Q12HX018 (ip), vehicle: Klucel (hydroxypropylcellulose) (HPC)); 105 % of control (endpoint: mean survival time, dose: 18.0 mg/kg/injection, schedule: Q01DX001 (ip), vehicle: carboxymethylcellulose (CMC)); 115 % of control (endpoint: mean survival time, dose: 20.0 mg/kg/injection, schedule: Q01DX001 (ip), vehicle: carboxymethylcellulose (CMC)); 92 % of control (endpoint: mean survival time, dose: 20.0 mg/kg/injection, schedule: Q01DX009 (ip), vehicle: acetone). Besides, the T/C was 89 % of control (endpoint: mean survival time, dose: 20.0 mg/kg/injection, schedule: Q12HX018 (ip), vehicle: Klucel (hydroxypropylcellulose) (HPC)); 116 % of control (endpoint: mean survival time, dose: 25.0 mg/kg/injection, schedule: Q01DX Z (ip), vehicle: carboxymethylcellulose (CMC)); 109 % of control (endpoint: mean survival time, dose: 27.0 mg/kg/injection, schedule: Q01DX001 (ip), vehicle: carboxymethylcellulose (CMC)); 113 % of control and 115 % of control (endpoint: mean survival time, dose: 27.0 mg/kg/injection, schedule: Q01DX001 (ip), vehicle: saline with Tween-80); 108 % of control and 109 % of control (endpoint: mean survival time, dose: 31.0 mg/kg/injection, schedule: Q04DX002 (ip), vehicle: saline with Tween-80); 115 % of control (endpoint: mean survival time, dose: 40.0 mg/kg/injection, schedule: Q01DX001 (ip), vehicle: carboxymethylcellulose (CMC)). Also, the T/C is 114 % of control (endpoint: mean survival time, dose: 41.0 mg/kg/injection, schedule: Q01DX001 (ip), vehicle: carboxymethylcellulose (CMC)); 115 % of control and 121 % of control (endpoint: mean survival time, dose: 41.0 mg/kg/injection, schedule: Q01DX001 (ip), vehicle: saline with Tween-80); 99 % of control (endpoint: median survival time, dose: 3.0 mg/kg/injection, schedule: Q01DX009 (ip), vehicle: saline); 105 % of control (endpoint: median survival time, dose: 6.0 mg/kg/injection, schedule: Q01DX009 (ip), vehicle: saline); 96 % of control (endpoint: median survival time, dose: 12.0 mg/kg/injection, schedule: Q01DX009 (ip), vehicle: saline); 89 % of control (endpoint: median survival time, dose: 24.0 mg/kg/injection, schedule: Q01DX009 (ip), vehicle: saline).

With `CC1CCCCN1P(c1ccccc1)N1CCCCC1C` (stereo unspecified), the T/C runs as follows: (endpoint: mean survival time, dose: 100.0 mg/kg/injection, schedule: Q04DX002 (sc), vehicle: olive oil, sesame oil, peanut oil) 97 % of control; (endpoint: mean survival time, dose: 200.0 mg/kg/injection, schedule: Q04DX002 (sc), vehicle: olive oil, sesame oil, peanut oil) 113 % of control; (endpoint: mean survival time, dose: 400.0 mg/kg/injection, schedule: Q04DX002 (sc), vehicle: olive oil, sesame oil, peanut oil) 107 % of control.

Turning to `O=C(Nc1ccc(F)cc1)Nc1cc(C(F)(F)F)ccc1Cl`, the T/C (endpoint: mean survival time, dose: 50.0 mg/kg/injection, schedule: Q01DX009 (ip), vehicle: Klucel (hydroxypropylcellulose) (HPC)) was 107 % of control; the T/C (endpoint: mean survival time, dose: 100.0 mg/kg/injection, schedule: Q01DX009 (ip), vehicle: Klucel (hydroxypropylcellulose) (HPC)) was 92 % of control; the T/C (endpoint: mean survival time, dose: 200.0 mg/kg/injection, schedule: Q01DX009 (ip), vehicle: Klucel (hydroxypropylcellulose) (HPC)) was 92 % of control.

The record behind these values is PubChem BioAssay AID248 (DTP/NCI, 2004).
